Here are results for 47 compounds from ChEMBL document CHEMBL5523670, “Structure activity relationship and target prediction for ABX464 analogues in Caenorhabditis elegans” (Bioorg Med Chem, 2024).

Data set [1] deals with Caenorhabditis elegans. Kind of data set: Anthelmintic activity against Caenorhabditis elegans N2 Bristol assessed as reduction in motility of young adults measured for 40 hrs. The note with it: for IC50: Caenorhabditis elegans, N2 Bristol, 40 h. Type of data set: functional, organism-based.
Data set [2] has as its system Caenorhabditis elegans. Kind of data set: Anthelmintic activity against Caenorhabditis elegans N2 Bristol assessed as maximum inhibition of motility measured for 40 hrs. Type of data set: functional.
The nature of data set [3]: Cytotoxicity against human HepG2 cells measured for 48 hrs by crystal violet staining based analysis. The class given is toxicity, cell-based.
Data set [4] is described as follows: Mitotoxicity against human HepG2 cells assessed as reduction in cell viability measured for 48 hrs by crystal violet staining based analysis. The class given is toxicity.

A word on the IC50: it is the point on the concentration scale where inhibition reaches its midpoint. What is called CC50 is the concentration that lowers cell viability or growth by half.

Molecules are shown by their SMILES.

On to `Clc1ccccc1Nc1ccc2cccc(Cl)c2n1`, for which the IC50 in data set [1] is over 40 µM.
As to `N#Cc1ccccc1Nc1ccc2cccc(Cl)c2n1`, the IC50 in data set [1] is over 40 µM.
With `FC(F)(F)Oc1ccc(Nc2cc(Cl)c3ccccc3n2)cc1`, the IC50 in data set [1] is 11 µM.
Consider `Fc1cccc2ccc(Nc3ccc(OC(F)(F)F)cc3)nc12`, for which the Imax in data set [2] is listed as 69%. Besides, the IC50 in data set [1] was determined as 18 µM.
On to `FC(F)(F)Oc1ccc(Nc2nc3ccccc3cc2Cl)cc1`, for which the 50% inhibitory concentration (IC50) in data set [1] was over 40 µM.
On the same count and under the same terms, the figure for `FC(F)(F)c1ccccc1Nc1ccc2cccc(Cl)c2n1` is over 40 µM.
Regarding `Clc1cccc2ccc(Nc3ccccc3)nc12`, in data set [1], the IC50 amounted to 11 µM. Besides, in data set [1] (time 40 hrs), the Imax was 52%.
Take `Cc1cccc2ccc(Nc3ccc(OC(F)(F)F)cc3)nc12`: the IC50 in data set [1] is over 40 µM.
Consider `FC(F)(F)Oc1ccc(Nc2ccc3cccc(Cl)c3n2)cc1Cl`, for which the IC50 in data set [1] is over 40 µM.
Regarding `Clc1cccc2ccc(Nc3ccc(-c4ccccc4)cc3)nc12`, in data set [1], the IC50 was over 40 µM.
Consider `Fc1cccc(Nc2ccc3cccc(Cl)c3n2)c1`, for which the IC50 in data set [1] came to 29 µM.
Turning to `COc1cccc2ccc(Nc3ccc(OC(F)(F)F)cc3)nc12`, the IC50 in data set [1] was over 40 µM.
The same measure, in the same setting: the value for `Cc1cccc(Nc2ccc3cccc(Cl)c3n2)c1` was 22 µM.
Turning to `FC(F)(F)c1ccc(Nc2ccc3cccc(Cl)c3n2)cc1`, the CC50 at 48 h in data set [3] and in data set [4] was at least 40 µM throughout.
`FC(F)(F)Oc1ccc(Nc2ccc3cc(Cl)ccc3n2)cc1`: the IC50 in data set [1] was over 40 µM.
As for `Cc1ccc(Nc2ccc3cccc(Cl)c3n2)cc1`, the Imax in data set [2] worked out at 59%. For the same compound, the IC50 in data set [1] was determined as 28 µM.
Take `FC(F)(F)c1ccc(Nc2ccc3cccc(Cl)c3n2)nc1`: the IC50 in data set [1] was over 40 µM.
Same read-out and setting: the figure for `FC(F)(F)Oc1ccc(Nc2ccc3ccccc3n2)cc1` is over 40 µM; for `FC(F)(F)Oc1cccc(Nc2ccc3cccc(Cl)c3n2)c1` it is over 40 µM.
With `CN(c1ccc(OC(F)(F)F)cc1)c1ccc2cccc(Cl)c2n1`, the Imax in data set [2] amounted to 81%. The IC50 in data set [1] was determined as 78 µM. Also, the half-maximal cytotoxic concentration (CC50) at 48 h in data set [3] and in data set [4] was at least 40 µM in each case.
In the case of `FC(F)(F)Oc1ccc(Oc2ccc3cccc(Cl)c3n2)cc1`, the IC50 in data set [1] was over 40 µM.
`FC(F)(F)Oc1ccc(Nc2ccc3c(Cl)cccc3n2)cc1`: the concentration for half-maximal inhibition (IC50) in data set [1] came to 7.1 µM. Further, the CC50 at 48 h in data set [3] and in data set [4] was at least 40 µM in each case.
For `Fc1ccc(Nc2ccc3cccc(Cl)c3n2)cc1`, the Imax in data set [2] was found to be 57%. The concentration for half-maximal inhibition (IC50) in data set [1] was 16 µM.
Take `FC(F)(F)c1ccc(Nc2ccc3cccc(Cl)c3n2)cn1`: the IC50 in data set [1] is over 40 µM.
Consider `FC(F)(F)Oc1ccc(Nc2ccc3cccc(-c4ccccc4)c3n2)cc1`, for which the IC50 in data set [1] was over 40 µM.
Regarding `N#Cc1cccc(Nc2ccc3cccc(Cl)c3n2)c1`, in data set [1], the IC50 is over 40 µM.
Turning to `Clc1ccc(Nc2ccc3cccc(Cl)c3n2)cc1Cl`, the Imax in data set [2] came out at 100%. For the same compound, the IC50 in data set [1] was 6.9 µM. In addition, the CC50 at 48 h in data set [3] and in data set [4] was at least 40 µM each time.
Turning to `FC(F)(F)c1cc(Nc2ccc3cccc(Cl)c3n2)ccc1Cl`, the Imax in data set [2] turned out to be 82%. Besides, in data set [1], the IC50 is 7 µM.
`COc1cccc(Nc2ccc3cccc(Cl)c3n2)c1`: the IC50 in data set [1] was determined as 21 µM.
Still for that read-out and setting: the figure for `FC(F)(F)c1ccc(Nc2ccc3cccc(Cl)c3n2)cc1C(F)(F)F` is over 40 µM; for `N#Cc1cccc2ccc(Nc3ccc(OC(F)(F)F)cc3)nc12` it is over 40 µM; for `Clc1cccc2ccc(Nc3ccccc3-c3ccccc3)nc12` it is over 40 µM.
Same read-out and setting: the value for `Clc1cccc2ccc(Nc3cccc(-c4ccccc4)c3)nc12` was over 40 µM.
As for `Clc1cccc(Nc2ccc3cccc(Cl)c3n2)c1`, the IC50 in data set [1] was found to be 11 µM. Also, the cytotoxic concentration (CC50) at 48 h in data set [3] and in data set [4] was at least 40 µM in each case.
On to `FC(F)(F)Oc1ccc(Nc2ccccn2)cc1`, for which, in data set [1], the IC50 was over 40 µM.
The same measure, in the same setting: the figure for `Oc1ccc(Nc2ccc3cccc(Cl)c3n2)cc1` is over 40 µM.
`FC(F)(F)Oc1ccc(Nc2ccc3cccc(Br)c3n2)cc1`: in data set [2], the Imax is recorded as 67%. Further, in data set [1], the half-inhibitory concentration (IC50) is 5.9 µM.
For the compound `Clc1ccc(Nc2ccc3cccc(Cl)c3n2)cc1`, in data set [2], the Imax is 58%. Moreover, the IC50 in data set [1] is 14 µM.
On to `N#Cc1ccc(Nc2ccc3cccc(Cl)c3n2)cc1`, for which the IC50 in data set [1] is over 40 µM.
Still for that read-out and setting: the figure for `COc1ccc(Nc2ccc3cccc(Cl)c3n2)cc1` is over 40 µM; for `Fc1ccccc1Nc1ccc2cccc(Cl)c2n1` it is over 40 µM.
Take `FC(F)(F)c1cccc(Nc2ccc3cccc(Cl)c3n2)c1`: in data set [2], the Imax came out at 55%. Also, the IC50 in data set [1] stood at 3.2 µM.
Take `COc1ccccc1Nc1ccc2cccc(Cl)c2n1`: in data set [1], the IC50 was over 40 µM.
The same measure, in the same setting: the figure for `FC(F)(F)Oc1ccccc1Nc1ccc2cccc(Cl)c2n1` is over 40 µM; for `C[C@](C#N)(COc1cc(C#N)ccc1C(F)(F)F)NC(=O)c1ccc(SC(F)(F)F)cc1` [MONEPANTEL] it is 0.03 µM; for `CO/N=C1\C[C@]2(C[C@@H]3C[C@@H](C/C=C(\C)C[C@@H](C)/C=C/C=C4\CO[C@@H]5[C@H](O)C(C)=C[C@@H](C(=O)O3)[C@]45O)O2)O[C@H](/C(C)=C/C(C)C)[C@H]1C` [MOXIDECTIN] it is 0.1 µM.
As for `FC(F)(F)Oc1ccc(Nc2ccc3cccc(Cl)c3n2)cc1` [OBEFAZIMOD], the Imax in data set [2] was found to be 94%. For the same compound, the IC50 in data set [1] worked out at 7.2 µM.
